US20230143604A1, “QW DOSING OF GIP RECEPTOR AGONIST PEPTIDE COMPOUNDS AND USES THEREOF” (TAKEDA PHARMACEUTICAL COMPANY LIMITED, priority 2020, published 2023)
Starred links: 1 amine or outer side, 2 acyl side, 3 side chain; linkers in the order of their positions; H or OH if unused. Non-standard residues stand in square brackets, D forms with d. Residues, ends and D or L forms follow the SMILES beside them. Groups on a side chain read outwards from the residue. No end group written: not given here. *: point of attachment. C18 diacid = O=C(O)CCCCCCCCCCCCCCCCC(=O)*; γGlu = O=C(O)[C@H](CCC(=O)[*:2])N[*:1]; NMeY = CN[C@@H](Cc1ccc(O)cc1)C(=O)O; AEEA = NCCOCCOCC(=O)O; Aib = CC(C)(N)C(=O)O

T1: full-length human GIPR with an N-terminal FLAG tag, overexpressed on HEK-293T cells (human, UniProt P48546 22-466)
T1 sequence (looked up): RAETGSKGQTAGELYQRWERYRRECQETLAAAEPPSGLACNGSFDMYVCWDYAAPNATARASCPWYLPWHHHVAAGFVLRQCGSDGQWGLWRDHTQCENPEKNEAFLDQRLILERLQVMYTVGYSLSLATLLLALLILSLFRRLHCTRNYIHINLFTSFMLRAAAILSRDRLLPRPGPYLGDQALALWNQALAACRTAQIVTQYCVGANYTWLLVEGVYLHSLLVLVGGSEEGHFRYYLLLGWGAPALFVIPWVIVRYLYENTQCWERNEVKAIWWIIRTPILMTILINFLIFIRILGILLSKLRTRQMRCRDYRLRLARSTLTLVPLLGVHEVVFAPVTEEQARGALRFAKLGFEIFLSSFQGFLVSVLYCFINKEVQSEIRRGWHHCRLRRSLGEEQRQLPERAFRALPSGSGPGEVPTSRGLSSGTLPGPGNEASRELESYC

B1: Compound No. 216 (peptide)
peptide: [NMeY][Aib]EGTFISDYSIALDRAAQAK([AEEA-AEEA-γGlu-γGlu-C18 diacid])FVNWLLAQRG-OH
B2: Compound No. 214 (peptide)
peptide: [NMeY][Aib]EGTFISDYSI[Aib]LDRAAQ[Aib]K([AEEA-AEEA-γGlu-γGlu-C18 diacid])FVNWLLAQRG-OH
B3: Compound No. 219 (peptide)
peptide: [NMeY][Aib]EGTFISDYSI[Aib]LDR[Aib]AQ[Aib]K([AEEA-AEEA-C18 diacid])FVNWLLAQRG-OH
B4: Compound No. 218 (peptide)
peptide: [NMeY]AEGTFISDYSI[Aib]LDR[Aib]AQ[Aib]K([AEEA-AEEA-γGlu-γGlu-C18 diacid])FVNWLLAQRG-OH
B5: Compound No. 215 (peptide)
peptide: [NMeY][Aib]EGTFISDYSI[Aib]LDR[Aib]AQAK([AEEA-AEEA-γGlu-γGlu-C18 diacid])FVNWLLAQRG-OH
B6: Compound No. 217 (peptide)
peptide: [NMeY][dA]EGTFISDYSI[Aib]LDR[Aib]AQ[Aib]K([AEEA-AEEA-γGlu-γGlu-C18 diacid])FVNWLLAQRG-OH

Columns and labels:
[1] = target: T2, human GLP-1R (Homo sapiens, UniProt P43220); assay: Human GLP1R agonist activity, intracellular cAMP accumulation; assay type: cell-based; settings: HEK-293T cells overexpressing human GLP-1R, 1 hr, read-out: Human GLP1R cAMP EC50, HEK293T
T2 construct: HEK-293T cells overexpressing full-length human GLP-1R; FLAG (N); host or cells: HEK-293T
Experimental: Cells are cultured per the manufacturer's protocol in DMEM with 10% fetal bovine serum and 1 μg/mL puromycin and stored in frozen aliquots to be used as assay ready cells. On the day of the assay, cells are removed from frozen storage, washed two times in 1× Kreb's Ringer Buffer (Zenbio, Research Triangle Park, N.C.), and re-suspended to a concentration of 4×10^5 cells/mL in 1× Kreb's Ringer Buffer. […] Cells are incubated with test compound for 1 hr at room temperature in the dark, and cAMP accumulation is measured using the Cisbio HiRange cAMP assay kit (Bedford, Mass.) per the manufacturer's protocol. Anti-cAMP antibody and d2-cAMP tracer reagents diluted in lysis/detection buffer are incubated in the dark for 1 hr, and results are measured on an Envision plate reader (Perkin Elmer, Waltham, Mass.). Data is normalized using 1 nm GLP-1 as 100% activity, and DMSO alone as 0% activity.

[2] = physchem
In short: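 Solubility at pH 7.4 determined by stepwise addition of 200 mM phosphate buffer in 100 μL increments to 3 mg peptide, mixing briefly each time, until no insoluble material remained, then measured by liquid chromatography.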

[3] = target: T1, full-length human GIPR with an …; assay: cell-based or functional assay
[4] = target: full-length human GLP-1R with an N-terminal FLAG tag, overexpressed on HEK-293T cells (human, UniProt P43220 24-463); assay: cell-based or functional assay

T2 sequence (P43220 24-463): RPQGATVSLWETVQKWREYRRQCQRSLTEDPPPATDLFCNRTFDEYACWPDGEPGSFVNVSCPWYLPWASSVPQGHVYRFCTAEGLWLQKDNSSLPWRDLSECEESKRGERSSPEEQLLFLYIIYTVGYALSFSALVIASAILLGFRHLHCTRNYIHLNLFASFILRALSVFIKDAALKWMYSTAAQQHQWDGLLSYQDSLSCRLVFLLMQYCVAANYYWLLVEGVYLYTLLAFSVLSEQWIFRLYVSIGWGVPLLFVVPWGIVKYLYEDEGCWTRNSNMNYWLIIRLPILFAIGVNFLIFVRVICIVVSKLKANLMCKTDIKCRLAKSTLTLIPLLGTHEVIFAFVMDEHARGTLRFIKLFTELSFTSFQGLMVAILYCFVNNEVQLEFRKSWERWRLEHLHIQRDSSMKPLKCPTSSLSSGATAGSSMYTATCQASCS

Row | Molecule | EC50 [1] [nM] | solubility ([2]; pH 7.4) [mg/mL] | solubility ([2]; pH 7.4, aqueous buffer) [mg/mL] | Human GIPR cAMP EC50, HEK293T [3] [nM] | Human GLP1R cAMP EC50, HEK293T [4] [nM]
1 | CC[C@H](C)[C@H](NC(=O)[C@H](Cc1ccccc1)NC(=O)[C@@H](NC(=O)CNC(=O)[C@H](CCC(=O)O)NC(=O)C(C)(C)NC(=O)[C@@H](N)Cc1ccc(O)cc1)[C@@H](C)O)C(=O)N[C@@H](CO)C(=O)N[C@@H](CC(=O)O)C(=O)N[C@@H](Cc1ccc(O)cc1)C(=O)N[C@@H](CO)C(=O)N[C@H](C(=O)NC(C)(C)C(=O)N[C@@H](CCCCNC(=O)CNC(=O)CNC(=O)CNC(=O)CNC(=O)CNC(=O)CCCCCCCCCCCCCCCCC(=O)O)C(=O)N[C@@H](CC(=O)O)C(=O)N[C@@H](CO)C(=O)NC(C)(C)C(=O)N[C@@H](C)C(=O)N[C@@H](CCC(N)=O)C(=O)NC(C)(C)C(=O)N[C@@H](CC(=O)O)C(=O)N[C@@H](Cc1ccccc1)C(=O)N[C@H](C(=O)N[C@@H](CC(N)=O)C(=O)N[C@@H](Cc1c[nH]c2ccccc12)C(=O)N[C@@H](CC(C)C)C(=O)N[C@@H](CC(C)C)C(=O)N[C@@H](C)C(=O)N[C@@H](CCC(N)=O)C(=O)N[C@@H](CCCNC(=N)N)C(=O)NCC(=O)O)C(C)C)[C@@H](C)CC [Compound 150] | 13.5 | ≥ 15 | ≥ 30 |  | 
2 | CC[C@H](C)[C@H](NC(=O)[C@H](Cc1ccccc1)NC(=O)[C@@H](NC(=O)CNC(=O)[C@H](CCC(=O)O)NC(=O)C(C)(C)NC(=O)[C@H](Cc1ccc(O)cc1)NC)[C@@H](C)O)C(=O)N[C@@H](CO)C(=O)N[C@@H](CC(=O)O)C(=O)N[C@@H](Cc1ccc(O)cc1)C(=O)N[C@@H](CO)C(=O)N[C@H](C(=O)NC(C)(C)C(=O)N[C@@H](CC(C)C)C(=O)N[C@@H](CC(=O)O)C(=O)N[C@@H](CO)C(=O)N[C@@H](CCCCNC(=O)CNC(=O)CNC(=O)CNC(=O)CNC(=O)CNC(=O)CCCCCCCCCCCCCCCCC(=O)O)C(=O)N[C@@H](C)C(=O)N[C@@H](CCC(N)=O)C(=O)NC(C)(C)C(=O)N[C@@H](CC(=O)O)C(=O)N[C@@H](Cc1ccccc1)C(=O)N[C@H](C(=O)N[C@@H](CC(N)=O)C(=O)N[C@@H](Cc1c[nH]c2ccccc12)C(=O)N[C@@H](CC(C)C)C(=O)N[C@@H](CC(C)C)C(=O)N[C@@H](C)C(=O)N[C@@H](CCC(N)=O)C(=O)N[C@@H](CCCCN)C(=O)NCC(=O)O)C(C)C)[C@@H](C)CC [Compound 77] | 17 | ≥ 15 | ≥ 30 |  | 
3 | CC[C@H](C)[C@H](NC(=O)[C@H](CO)NC(=O)[C@H](Cc1ccc(O)cc1)NC(=O)[C@H](CC(=O)O)NC(=O)[C@H](CO)NC(=O)[C@@H](NC(=O)[C@H](Cc1ccccc1)NC(=O)[C@@H](NC(=O)CNC(=O)[C@H](CCC(=O)O)NC(=O)C(C)(C)NC(=O)[C@H](Cc1ccc(O)cc1)NC)[C@@H](C)O)[C@@H](C)CC)C(=O)N[C@@H](C)C(=O)N[C@@H](CCCCNC(=O)CNC(=O)CNC(=O)CNC(=O)CNC(=O)CNC(=O)CCCCCCCCCCCCCCCCC(=O)O)C(=O)N[C@@H](CC(=O)O)C(=O)N[C@@H](CCCNC(=N)N)C(=O)NC(C)(C)C(=O)N[C@@H](C)C(=O)N[C@@H](CCC(N)=O)C(=O)N[C@@H](CCCNC(=N)N)C(=O)N[C@@H](CC(=O)O)C(=O)N[C@@H](Cc1ccccc1)C(=O)N[C@H](C(=O)N[C@@H](CCC(=O)O)C(=O)N[C@@H](Cc1c[nH]c2ccccc12)C(=O)N[C@@H](CC(C)C)C(=O)N[C@@H](CC(C)C)C(=O)N[C@@H](C)C(=O)N[C@@H](CCC(N)=O)C(=O)N[C@@H](CO)C(=O)N1CCC[C@H]1C(=O)NCC(=O)O)C(C)C [Compound 120] | 15.8 | ≥ 15 | ≥ 30 |  | 
4 | CC[C@H](C)[C@H](NC(=O)[C@H](Cc1ccccc1)NC(=O)[C@@H](NC(=O)CNC(=O)[C@H](CCC(=O)O)NC(=O)C(C)(C)NC(=O)[C@@H](N)Cc1ccc(O)cc1)[C@@H](C)O)C(=O)N[C@@H](CO)C(=O)N[C@@H](CC(=O)O)C(=O)N[C@@H](Cc1ccc(O)cc1)C(=O)N[C@@H](CO)C(=O)N[C@H](C(=O)NC(C)(C)C(=O)N[C@@H](CCCCNC(=O)CNC(=O)CNC(=O)CNC(=O)CNC(=O)CNC(=O)CCCCCCCCCCCCCCCCC(=O)O)C(=O)N[C@@H](CC(=O)O)C(=O)N[C@@H](CO)C(=O)NC(C)(C)C(=O)N[C@@H](C)C(=O)N[C@@H](CCC(N)=O)C(=O)N[C@@H](C)C(=O)N[C@@H](CC(=O)O)C(=O)N[C@@H](Cc1ccccc1)C(=O)N[C@H](C(=O)N[C@@H](CC(N)=O)C(=O)N[C@@H](Cc1c[nH]c2ccccc12)C(=O)N[C@@H](CC(C)C)C(=O)N[C@@H](CC(C)C)C(=O)N[C@@H](C)C(=O)N[C@@H](CCC(N)=O)C(=O)N[C@@H](CCCNC(=N)N)C(=O)NCC(=O)O)C(C)C)[C@@H](C)CC [Compound 152] | 33.1 | ≥ 15 | ≥ 30 |  | 
5 | CC[C@H](C)[C@H](NC(=O)[C@H](Cc1ccccc1)NC(=O)[C@@H](NC(=O)CNC(=O)[C@H](CCC(=O)O)NC(=O)C(C)(C)NC(=O)[C@H](Cc1ccc(O)cc1)NC)[C@@H](C)O)C(=O)N[C@@H](CO)C(=O)N[C@@H](CC(=O)O)C(=O)N[C@@H](Cc1ccc(O)cc1)C(=O)N[C@@H](CO)C(=O)N[C@H](C(=O)NC(C)(C)C(=O)N[C@@H](CC(C)C)C(=O)N[C@@H](CC(=O)O)C(=O)N[C@@H](CCCNC(=N)N)C(=O)NC(C)(C)C(=O)N[C@@H](C)C(=O)N[C@@H](CCC(N)=O)C(=O)NC(C)(C)C(=O)N[C@@H](CCCCNC(=O)COCCOCCNC(=O)COCCOCCNC(=O)CCCCCCCCCCCCCCCCC(=O)O)C(=O)N[C@@H](Cc1ccccc1)C(=O)N[C@H](C(=O)N[C@@H](CC(N)=O)C(=O)N[C@@H](Cc1c[nH]c2ccccc12)C(=O)N[C@@H](CC(C)C)C(=O)N[C@@H](CC(C)C)C(=O)N[C@@H](C)C(=O)N[C@@H](CCC(N)=O)C(=O)N[C@@H](CCCNC(=N)N)C(=O)NCC(=O)O)C(C)C)[C@@H](C)CC [Compound 219] (H-[NMeY][Aib]EGTFISDYSI[Aib]LDR[Aib]AQ[Aib]K([AEEA-AEEA-C18 diacid])FVNWLLAQRG-OH) | 17.4 |  |  |  | 
6 | B1 |  |  |  | 0.0005 | 79.4
7 | B2 |  |  |  | 0.0014 | 28.8
8 | B3 |  |  |  | 0.0008 | 17.4
9 | B4 |  |  |  | 0.0005 | 38
10 | B5 |  |  |  | 0.0005 | 61.7
11 | B6 |  |  |  | 0.0006 | 135
